Format in all cases: cell-based, female Balb/c mice
Data set [1] in a line: in vitro. The note with it: spleen cell leukocytes. As to the method:
(§1) Measurement of drug-induced cellular cytotoxicity was determined after 48 hours of cell culture with and without conA and with and without test compound or vehicle control. All cell preparations and assay conditions were identical to those described in Assay A. A fluorescence based assay was used to measure cell viability using the carboxyfluorescein derivative 2'-7'-biscarboxyethyl-5 (6)-carboxyfluorecein (BCECF) as a vital dye [Leeder, J. S., Dosch, H. M., Harper, P. A., Lam, P. and S. P. Spielberg, 1989. Anal. Biochem. 177, 364-372]. The membrane permeant, nonfluorescent ester derivitive, BCECF-AM (100 μl of a 2 ug/ml solution in phosphate buffered saline, pH 7.0, Molecular Probes, Eugene, OR) was added to each cell culture and incubated at 37° C. for 30 min. […] The cells were washed and concentrated on the well membrane under low vacuum, and cell associated fluorescence was measured by front surface fluorometry (485/535 nM) in the Screen Machine (Baxter) using an automated protocol. Probit analysis was used to determine viability as a percentage of relative fluorescence units (RFU) compared to control (cells and medium). The dose of test compound that induced at least 50% cellular toxicity, i.e., a 50% reduction in RFU compared to unstimulated control cells, was recorded.

Data set [2] has as its system conA-stimulated T cell proliferation (spleen cells). Description: Assay A: Suppression of Murine Mitogen-Stimulated Proliferation. The note with it: conA 1 ug/ml, 3 days culture, MTT readout, n = 2. The text has this:
Assay A: Suppression of Murine Mitogen-Stimulated Proliferation
It is known that lymphocyte activation can be polyclonally stimulated by plant lectins and other mitogenic substances that induce blast transformation and mitosis. The plant lectin concanavalin A (conA) preferentially induces activation and proliferation of T lymphocytes. Exposure of T cells to conA results in polyclonal T cell activation, and this response can be used to determine the in vitro index of immunomodulatory effects of test compounds on pan-T cell activation. Spleen cells were harvested aseptically from female Balb/c mice, and cells were extruded by compression in phosphate buffered saline (pH 7.0). […] The remaining cells were pelleted, resuspended in medium, filtered through a cotton plug to remove debris, and the leukocytes were then counted. […] Inhibition of conA-stimulated T cell proliferation was measured using a colorimetric indicator of cell growth and proliferation, MTT [3-(4,5-dimethylthiazol-2-yl)-2 diphenyltetrazolium bromide; 100 μl of a 1 mg/ml solution per well, SIGMA] […] Light absorbance was measured at a test wavelength of 570 nm and a reference wavelength of 650 nm using a spectrophotometer. […]

Data set [3] deals with spleen cell leukocytes (cell viability). The data set is described as follows: in vitro. The note with it: 48 h. On the procedure: as §1

In general, CC50 refers to the concentration that lowers cell viability or growth by half. A higher CC50 goes with lower toxicity to the cells. The term EC50 denotes the concentration at which the effect is half-maximal. In turn, `COc1ccc(CCN(C)CC(O)CC(C#N)(c2ccc(OC)c(OC)c2)C(C)C)cc1OC` (racemic) [Example 1-A, α-[3-[[2-(3,4-dimethoxyphenyl)ethyl]methylamino]-2-hydroxypropyl]-3,4-dimethoxy-α-(1-methylethyl)benzeneacetonitrile] had a cytotoxic concentration (CC50) at 48 h in data set [1] of 60 µM. In addition, the concentration for a half-maximal effect (EC50) in data set [2] (Mus musculus, T-cell, 72 h) was 12.9 ± 5.75 µM.
In data set [3], `COc1ccc(CCN(C)CC(O)CC(C#N)(c2ccc(OC)c(OC)c2)C(C)C)cc1OC` (racemic) [Example 1-B, α-[3-[[2-(3,4-dimethoxyphenyl)ethyl]methylamino]-2-hydroxypropyl]-3,4-dimethoxy-α-(1-methylethyl)benzeneacetonitrile] showed a 50% cytotoxic concentration (CC50) of 60 µM. Further, in data set [2], the 50% effective concentration (EC50) is 17.9 ± 8.16 µM.

These data come from patent publication US5247119A, “Phenylacetonitrilehydroxyalkylaminoalkyl-ortho-substituted aryl compounds as immunosuppressives” (G. D. Searle & Co., priority 1992, dated 1993).
